Assay results: US20240279202A1 (NURIX THERAPEUTICS, INC., priority 2021, published 2024)

Key:
[1] = target: T1, ITK (Homo sapiens, UniProt Q08881); assay: ITK degradation HiBiT assay; format: cell-based; design: expressed in transfected cells; host or cells: Molt4 (ATCC CRL-1552), monoclonal clone 1C10, engineered to carry the HiBiT tag; conditions: 4 hrs; for DC50: C-terminal HiBiT-tagged Molt4 cells; for Dmax: MOLT-4, C-terminal HiBiT-tagged Molt4 cells
T1 sequence (Q08881 1-620): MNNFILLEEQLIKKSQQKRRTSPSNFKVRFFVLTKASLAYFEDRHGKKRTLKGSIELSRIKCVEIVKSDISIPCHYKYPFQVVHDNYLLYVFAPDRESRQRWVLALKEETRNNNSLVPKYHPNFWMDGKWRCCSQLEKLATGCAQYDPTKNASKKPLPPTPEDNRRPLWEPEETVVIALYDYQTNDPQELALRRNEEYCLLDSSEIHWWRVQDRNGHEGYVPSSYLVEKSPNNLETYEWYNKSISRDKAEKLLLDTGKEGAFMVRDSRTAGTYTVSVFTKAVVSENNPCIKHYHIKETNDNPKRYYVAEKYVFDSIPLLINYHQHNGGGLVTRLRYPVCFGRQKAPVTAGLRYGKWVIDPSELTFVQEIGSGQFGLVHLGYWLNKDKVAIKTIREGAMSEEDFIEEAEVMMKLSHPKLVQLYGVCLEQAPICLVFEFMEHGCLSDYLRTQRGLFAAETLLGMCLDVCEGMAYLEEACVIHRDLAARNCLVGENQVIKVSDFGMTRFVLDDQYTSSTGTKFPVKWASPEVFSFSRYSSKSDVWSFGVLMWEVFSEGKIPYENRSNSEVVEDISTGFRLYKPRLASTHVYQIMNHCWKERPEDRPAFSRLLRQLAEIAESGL
In short: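 C-terminal HiBiT-tagged Molt4 cells (clone 1C10) treated 4 h at 32° C with an 11-point, 5-fold compound dilution series (0.5% DMSO). HiBiT lytic detection with LgBiT then luminescence read; % ITK remaining versus concentration fit by four-parameter variable-slope model to give DC50 and Dmax.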

[2] = Mouse PK analysis (blood/plasma concentration after oral administration); format: in vivo; conditions: mouse, mice, oral, plasma; for concentration at 1 h / concentration at 2 h / concentration at 6 h: 90 mg/kg; for concentration at 1 h: read-out: Cal. Conc. Total (μM) 1 h; for concentration at 2 h: read-out: Cal. Conc. Total (μM) 2 h; for concentration at 6 h: read-out: Cal. Conc. Total (μM) 6 h
Experimental: Compounds 1, 3, 7, and 42 were formulated and administered at 90 mg/kg to mice by oral gavage (PO). Blood was collected at defined time points (after 1, 2, and 6 hours) after compounds administration to determine PK parameters. Concentration increased through 6 hours. Six hours later mice were sacrificed and splenocytes were isolated and used to prepare protein lysates. Total protein levels were determined in the lysates using the BCA assay according to standard methods. Equal amounts of protein were then analyzed by Western blot to determine the level of ITK expression in each sample. ITK band intensities were measured using Alpha View software and the percent of ITK remaining in each test animal was determined relative to the mean of ITK levels in vehicle control samples.
Compounds 16, 17, and 18 were administered to mice orally. After 6 hours or 24 hours, splenocytes cells were harvested. ITK was evaluated by Western blotting. Plasma concentrations were determined by LC/MS/MS. Plasma samples were protein precipitated by addition of 100 μl of acetonitrile containing 50 ng/ml of internal standard. The resulting mixture was vortexed and centrifuged at 4000 RPM for 5 minutes. An aliquot of the resultant supernatant (75 μl) was added to 75 μl of 0.1% formic acid in water to constitute the final sample for injection. Samples were injected on a Shimadzu Exion LC Binary Gradient AD Pump HLPC system connected to a Sciex QTRAP 6500+mass spectrometer. Five μl of sample was injected onto a Waters Acquity UPLC BEH C18 column 130A (2.1×30 mm, […]) at 40° C. utilizing a flow rate of 700 μl/minute. Mobile Phase A was 0.1% formic acid in water and mobile phase B was 0.1% formic acid in acetonitrile. A linear gradient of 15-95% B over 1.0 minute was used. The mass spectrometer was operated in positive ion electrospray mode with multiple reaction monitoring for maximum sensitivity. Sciex Analyst software (version 1.6.3) was used for LC/MS/MS instrument control and acquisition. Compound concentration was determined against a standard curve of internal standard versus compound peak area ratio. Noncompartmental PK parameters were determined using […] software (version 8.2.0.4383) from Certara. Plasma concentrations from the LC/MS/MS analyses, dose, route of administration, and desired units were utilized for PK parameter calculations. […] FIG. 4C provides the concentration over time of compound 17 following in vivo oral administration in the 6 hour and 24 hour assays.
Cmax, Tmax and AUClast were all calculated using a WinNonLin Phoenix 64 v 8.2.0.4383. Using non-compartmental analysis, Tmax, Cmax and AUClast were determined as follows: • Tmax—Time of maximum observed concentration. • Cmax—Maximum observed concentration, occurring at time Tmax, as defined above. • AUClast—Area under the curve from the time of dosing to the time of the last measurable (positive) concentration (Tlast).

SMILES | DC50 [1] [nM] | Dmax [1] [%] | concentration at 2 h [2] [µM] | concentration at 6 h [2] [µM] | also measured
CN(c1ccc2cc(-c3n[nH]c4c3C[C@@H]3C(F)(F)[C@]3(C)C4)[nH]c2c1)C(=O)[C@H]1C[C@]2(CCN(c3ccc4c(c3)C(=O)N([C@H]3CCC(=O)NC3=O)C4=O)C2)C1 (racemic) [Compound 71b, (2s,4s)-N-[2-[(4aS,5aR)-5,5-difluoro-5a-methyl-1H,4H,4aH,6H-cyclopropa[f]indazol-3-yl]-1H-indol-6-yl]-6-[2-[(3RS)-2,6-dioxopiperidin-3-yl]-1,3-dioxoisoindol-5-yl]-N-methyl-6-azaspiro[3.4]octane-2-carboxamide] | 2 | 85 |  |  | AUC(0-t) [2]: 0.78 µM·h; Cmax [2]: 223 nM; Tmax [2]: 1.5 h
CN(C(=O)CCC1CCN(c2ccc3c(c2)C(=O)N(C2CCC(=O)NC2=O)C3=O)C1)c1ccc2cc(-c3n[nH]c4c3CCC(C)(C)C4)[nH]c2c1 (stereo not drawn) [Compound 1, N-(2-(6,6-dimethyl-4,5,6,7-tetrahydro-1H-indazol-3-yl)-1H-indol-6-yl)-3-(1-(2-(2,6-dioxopiperidin-3-yl)-1,3-dioxoisoindolin-5-yl)pyrrolidin-3-yl)-N-methylpropanamide] | 10.4 | 88 | 1.7 | 0.7 | concentration at 1 h [2]: 1.6 µM
CN(C(=O)CCN1CCN(c2ccc3c(c2)C(=O)N(C2CCC(=O)NC2=O)C3=O)CC1)c1ccc2cc(-c3n[nH]c4c3CCC(C)(C)C4)[nH]c2c1 (stereo not drawn) [Compound 2, N-(2-(6,6-dimethyl-4,5,6,7-tetrahydro-1H-indazol-3-yl)-1H-indol-6-yl)-3-(4-(2-(2,6-dioxopiperidin-3-yl)-1,3-dioxoisoindolin-5-yl)piperazin-1-yl)-N-methylpropanamide] | 4.4 | 90 | 0.039 | 0.059 | concentration at 1 h [2]: 0.041 µM
C[C@@H](C(=O)N(C)c1ccc2cc(-c3n[nH]c4c3CCC(C)(C)C4)[nH]c2c1)N1CCN(CC2CCN(c3ccc(C(=O)NC4CCC(=O)NC4=O)nc3)CC2)CC1 (stereo partly drawn) [Compound 7, 5-(4-((4-((S)-1-((2-(6,6-dimethyl-4,5,6,7-tetrahydro-1H-indazol-3-yl)-1H-indol-6-yl)(methyl)amino)-1-oxopropan-2-yl)piperazin-1-yl)methyl)piperidin-1-yl)-N-(2,6-dioxopiperidin-3-yl)picolinamide] |  |  | 0.29 | 0.45 | concentration at 1 h [2]: 0.2 µM
CN(C(=O)C1CN(C2CCN(c3ccc4c(c3)C(=O)N(C3CCC(=O)NC3=O)C4=O)CC2)C1)c1ccc2cc(-c3n[nH]c4c3CCC(C)(C)C4)[nH]c2c1 (stereo not drawn) [Compound 35, N-(2-(6,6-dimethyl-4,5,6,7-tetrahydro-1H-indazol-3-yl)-1H-indol-6-yl)-1-(1-(2-(2,6-dioxopiperidin-3-yl)-1,3-dioxoisoindolin-5-yl)piperidin-4-yl)-N-methylazetidine-3-carboxamide] |  |  | 0.155 | 0.053 | 
CC1(C)CCc2c(-c3cc4ccc(C(=O)N5CCN(CC6CCN(c7ccc(C8CCC(=O)NC8=O)cn7)CC6)CC5)cc4[nH]3)n[nH]c2C1 (stereo not drawn) [Compound 47, 3-(6-(4-((4-(2-(6,6-dimethyl-4,5,6,7-tetrahydro-1H-indazol-3-yl)-1H-indole-6-carbonyl)piperazin-1-yl)methyl)piperidin-1-yl)pyridin-3-yl)piperidine-2,6-dione] | 4.6 |  |  |  | 
C[C@@]12Cc3[nH]nc(C(=O)Nc4cnn(CC5CN(C(=O)C6CN(c7ccc(C8CCC(=O)NC8=O)cn7)C6)C5)c4)c3C[C@@H]1C2(F)F (stereo partly drawn) [Compound 49, (4aS,5aR)-N-(1-((1-(1-(5-(2,6-dioxopiperidin-3-yl)pyridin-2-yl)azetidine-3-carbonyl)azetidin-3-yl)methyl)-1H-pyrazol-4-yl)-5,5-difluoro-5a-methyl-1,4,4a,5,5a,6-hexahydrocyclopropa[f]indazole-3-carboxamide] | 3.9 |  |  |  | 

Second part, led by results:

DC50 [1] [nM] | Dmax [1] [%] | concentration at 2 h [2] [µM] | concentration at 6 h [2] [µM] | SMILES | also measured
3.4 | 85 |  |  | C[C@@H](C(=O)N(C)c1ccc2cc(-c3n[nH]c4c3CCC(C)(C)C4)[nH]c2c1)N1CCN(C[C@H]2CCN(c3ccc4c(c3)C(=O)N(C3CCC(=O)NC3=O)C4=O)C2)CC1 (stereo partly drawn) [Compound 33, (2S)—N-(2-(6,6-dimethyl-4,5,6,7-tetrahydro-1H-indazol-3-yl)-1H-indol-6-yl)-2-(4-(((3R)-1-(2-(2,6-dioxopiperidin-3-yl)-1,3-dioxoisoindolin-5-yl)pyrrolidin-3-yl)methyl)piperazin-1-yl)-N-methylpropanamide] | 
2.9 | 93 |  |  | C[C@@]12Cc3[nH]nc(C(=O)Nc4cnn(CC5CN(C(=O)C6CN(C7CCN(c8ccc9c(c8)C(=O)N(C8CCC(=O)NC8=O)C9=O)CC7)C6)C5)c4)c3C[C@@H]1C2(F)F (stereo partly drawn) [Compound 42, (4aS,5aR)-N-(1-((1-(1-(1-(2-(2,6-dioxopiperidin-3-yl)-1,3-dioxoisoindolin-5-yl)piperidin-4-yl)azetidine-3-carbonyl)azetidin-3-yl)methyl)-1H-pyrazol-4-yl)-5,5-difluoro-5a-methyl-1,4,4a,5,5a,6-hexahydrocyclopropa[f]indazole-3-carboxamide] | 
0.21 |  |  |  | C[C@@]12Cc3[nH]nc(C(=O)Nc4cnn(CC5CN(C(=O)C6CCN(c7ccc(C8CCC(=O)NC8=O)cn7)CC6)C5)c4)c3C[C@@H]1C2(F)F (stereo partly drawn) [Compound 50, (4aS,5aR)-N-(1-((1-(1-(5-(2,6-dioxopiperidin-3-yl)pyridin-2-yl)piperidine-4-carbonyl)azetidin-3-yl)methyl)-1H-pyrazol-4-yl)-5,5-difluoro-5a-methyl-1,4,4a,5,5a,6-hexahydrocyclopropa[f]indazole-3-carboxamide] | 
1.6 |  |  |  | CN(C(=O)CC1CCN(CC2CCN(c3ccc(C4CCC(=O)NC4=O)cn3)CC2)CC1)c1ccc2cc(-c3n[nH]c4c3C[C@@H]3C(F)(F)[C@]3(C)C4)[nH]c2c1 (stereo partly drawn) [Compound 73, N-(2-((4aS,5aR)-5,5-difluoro-5a-methyl-1,4,4a,5,5a,6-hexahydrocyclopropa[f]indazol-3-yl)-1H-indol-6-yl)-2-(1-((1-(5-(2,6-dioxopiperidin-3-yl)pyridin-2-yl)piperidin-4-yl)methyl)piperidin-4-yl)-N-methylacetamide] | 
0.5 | 83 |  |  | CN(C(=O)CC1CCN(CC2CCN(c3ccc(C(=O)NC4CCC(=O)NC4=O)nc3)CC2)CC1)c1ccc2cc(-c3n[nH]c4c3C[C@@H]3C(F)(F)[C@]3(C)C4)[nH]c2c1 (stereo partly drawn) [Compound 75, 5-(4-((4-(2-((2-((4aS,5aR)-5,5-difluoro-5a-methyl-1,4,4a,5,5a,6-hexahydrocyclopropa[f]indazol-3-yl)-1H-indol-6-yl)(methyl)amino)-2-oxoethyl)piperidin-1-yl)methyl)piperidin-1-yl)-N-(2,6-dioxopiperidin-3-yl)picolinamide] | 
